# Molecular target: MetAP-2 (Homo sapiens, UniProt P50579)
# Assay: MetAP-2 activity measurement (coupled enzymatic reactions, substrate Met-Arg-Ser)
# Type: biochemical
# Conditions: Inhibition of MetAP-2; read-out: IC50 enzyme
# Description: MetAP-2 Activity Measurement
# The MetAP-2 activity is determined by coupling enzymatic reactions. The tripeptide Met-Arg-Ser (MAS) is employed as substrate. The methionine liberated is firstly converted into Metox and H2O2 by L-aminooxidase (AAO).
# MetAP-2 activity can be recorded continuously as kinetics. The reaction scheme illustrates that one mol of dianisidineox is formed per mol of methionene. The MetAP-2 enzyme activity can therefore be calculated directly as Δ absorption per time unit. […] of the MetAP-2 activity (mol of Met/time unit) is possible with the aid of the dianisidineox extinction coefficient.
# The change in extinction per time unit is depicted graphically and a slope calculation is carried out in the visually linear region of the reaction.
# MetAP-2, sequence (P50579 whole entry, species assumed): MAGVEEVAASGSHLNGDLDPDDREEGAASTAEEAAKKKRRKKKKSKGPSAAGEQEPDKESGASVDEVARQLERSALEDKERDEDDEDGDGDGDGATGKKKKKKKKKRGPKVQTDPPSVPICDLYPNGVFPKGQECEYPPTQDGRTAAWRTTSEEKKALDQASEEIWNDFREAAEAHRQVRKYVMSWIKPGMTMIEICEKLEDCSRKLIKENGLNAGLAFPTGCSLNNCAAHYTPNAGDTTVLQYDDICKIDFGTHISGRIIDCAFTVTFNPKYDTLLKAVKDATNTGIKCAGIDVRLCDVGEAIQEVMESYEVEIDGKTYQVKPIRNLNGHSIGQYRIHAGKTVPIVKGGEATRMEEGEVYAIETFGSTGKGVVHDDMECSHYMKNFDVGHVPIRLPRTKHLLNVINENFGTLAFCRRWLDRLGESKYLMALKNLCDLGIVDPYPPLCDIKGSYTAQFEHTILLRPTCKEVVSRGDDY
row,Structure (SMILES),IC50 [µM]
1,CNC(=O)Cn1ccc2cc(N3CC[C@](O)(C(=O)NCc4cc(F)cc(Cl)c4)C3=O)ccc21 [A287],0.01 to 1
2,C#CC(NC(=O)[C@@]1(O)CCN(c2ccccc2)C1=O)c1ccccc1 (stereo partly drawn) [A288],0.01 to 1
3,CCNC(=O)N1CCc2cc(N3CC[C@](O)(C(=O)NCc4cc(F)cc(Cl)c4)C3=O)ccc21 [A290],0.01 to 1
4,O=C(NCCCN1CCOCC1)[C@@]1(O)CCN(c2ccccc2)C1=O [A292],> 10
5,O=C(NCc1ccc2c(c1)OCO2)[C@@]1(O)CCN(c2ccccc2)C1=O [A295],1 to 10
6,CCCC(C)NC(=O)[C@@]1(O)CCN(c2ccccc2)C1=O (stereo partly drawn) [A298],1 to 10
7,O=C(N1CCOCC1)[C@@]1(O)CCN(c2ccccc2)C1=O [A300],> 10
8,CC(C)OCCCNC(=O)[C@@]1(O)CCN(c2ccccc2)C1=O [A301],1 to 10
9,O=C(NCc1ccccc1C(F)(F)F)[C@@]1(O)CCN(c2ccccc2)C1=O [A302],0.01 to 1
10,CCN(Cc1ccccc1)C(=O)[C@@]1(O)CCN(c2ccccc2)C1=O [A303],> 10
11,CC(C)CNC(=O)[C@@]1(O)CCN(c2ccccc2)C1=O [A305],1 to 10
12,O=C(N1CCCCC1)[C@@]1(O)CCN(c2ccccc2)C1=O [A308],> 10
13,CCCCNC(=O)[C@@]1(O)CCN(c2ccccc2)C1=O [A310],0.01 to 1
14,CC1CCN(C(=O)[C@@]2(O)CCN(c3ccccc3)C2=O)CC1 [A316],1 to 10
15,O=C(NC1COc2ccccc2C1)[C@@]1(O)CCN(c2ccccc2)C1=O (stereo partly drawn) [A320],0.01 to 1
16,CN(Cc1ccsc1)C(=O)[C@@]1(O)CCN(c2ccccc2)C1=O [A321],> 10
17,CN(C(=O)[C@@]1(O)CCN(c2ccccc2)C1=O)C1CCCC1 [A323],1 to 10
18,O=C(NCC1CCCCC1)[C@@]1(O)CCN(c2ccccc2)C1=O [A324],0.01 to 1
19,CC(C)C(C)NC(=O)[C@@]1(O)CCN(c2ccccc2)C1=O (stereo partly drawn) [A326],1 to 10
20,CCCOCCNC(=O)[C@@]1(O)CCN(c2ccccc2)C1=O [A329],1 to 10
21,O=C(NCc1ccc(C(F)(F)F)cc1)[C@@]1(O)CCN(c2ccccc2)C1=O [A333],> 10
